According to patent US20240018121A1, “NOVEL HETEROAROMATIC COMPOUNDS EXHIBITING ANTIFUNGAL ACTIVITY AND THEIR METHOD OF USE” (FOX CHASE CHEMCIAL DIVERSITY CENTER, INC., priority 2020, published 2024):
Counter-ions that a name gives are not always drawn. Like-named read-outs stand apart in the source and are kept apart here.

Experiments:
Type in all cases: cell-based
[1] = tested on: Aspergillus fumigatus T33439 (ATCC MYA-3626); assay: Fungal MIC Protocol, Aspergillus fumigatus; conditions: Aspergillus fumigatus, read-out: MIC Aspergillus fumigatus 3626
Outline: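 Aspergillus fumigatus was grown on Potato Dextrose Agar at 35° C. for 3-5 days, and spores were collected with PBS pH 7.4+0.1% Tween-20 plus glass beads. Spores were diluted in RPMI/MOPS to OD530 0.002 (about 2×10^4 cfu/mL). 50 ul was added to 50 μl of serially diluted compound in round bottom 96-well plates, run in duplicate, and incubated at 35° C. for 48 hours.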

[2] = tested on: Fusarium solani (ATCC 58877); assay: Fungal MIC Protocol, Fusarium solani; conditions: Fusarium solani, read-out: MIC Fusarium solani 58877
Outline: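 Fusarium solani spores were grown on Potato Dextrose Agar in tissue culture flasks at 35° C. for 3-5 days, harvested with PBS pH 7.4+0.1% Tween-20 and glass beads, and diluted in RPMI/MOPS to an OD530 of 0.005 (about 2×10^4 cfu/mL). Equal 50 ul volumes of spores and serially diluted compound were combined in 96-well round bottom plates and incubated 48 hours at 35° C.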

[3] = tested on: Fusarium falciforme FS1 (ATCC MYA-3636); assay: Fungal MIC Protocol, Fusarium falciforme; conditions: Fusarium falciforme, read-out: MIC Fusarium falciforme 3636
Outline: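 Fusarium falciforme spores were raised on Potato Dextrose Agar at 35° C. for 3-5 days, collected in PBS pH 7.4+0.1% Tween-20 with glass beads, and diluted in RPMI/MOPS pH 7.0 to OD530 0.005 (about 2×10^4 cfu/mL). 50 ul spores were added to 50 μl duplicate serial compound dilutions in round bottom 96-well plates and incubated at 35° C. for 48 hours.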

Candida albicans GDH2346 = assay: Candida Minimal Inhibitory Concentration (MIC); conditions: Candida albicans, read-out: MIC-50 Candida albicans GDH2346
Outline: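 Twofold serial dilutions from 200 μg/mL in RPMI 1640/MOPS with glucose, pH 7.0, tested in duplicate against yeast from an OD600 1.0 suspension diluted 1:1000. Incubated at 35° C; OD600 read at 24 and 48 h.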

[4] = tested on: Aspergillus flavus AFL1 (ATCC MYA-3631); assay: Fungal MIC Protocol, Aspergillus flavus; conditions: Aspergillus flavus, read-out: MIC Aspergillus flavus 3631
Outline: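 Aspergillus flavus spores were grown on Potato Dextrose Agar at 35° C. for 3-5 days, harvested in PBS pH 7.4+0.1% Tween-20 with glass beads, and diluted in RPMI/MOPS to an OD530 of 0.002 (about 2×10^4 cfu/mL). 50 ul of spores were combined with 50 μl of serially diluted compound in 96-well round bottom plates and incubated at 35° C. for 48 hours.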

[5] = tested on: Mucor circinelloides 1463(62) (ATCC 26759); assay: Fungal MIC Protocol, Mucor circinelloides (MIC-50); conditions: Mucor circinelloides, read-out: MIC-50 Mucorales circinelloides 26579
Outline: (§1)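 Harvested spores, adjusted by OD530 to about 2×10^4 cfu/mL in RPMI/MOPS pH 7.0, are mixed with ten duplicate serial dilutions of compound. Incubation runs 48 h at 35° C before visual scoring of the lowest concentration inhibiting growth >50%.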

[6] = tested on: Mucor ramosissimus 057718 (ATCC 90286); assay: Fungal MIC Protocol, Mucor ramosissimus (MIC-50); conditions: Mucor ramosissimus, read-out: MIC-50 Mucorales ramosissimus 90286
Outline: as §1

[7] = 100% growth inhibition at 48 hours
[8] = ATCC58877, 100% growth inhibition at 48 hours
[9] = GDH2346, 50% growth inhibition at 48 hours
[10] = ATCC26759, 50% growth inhibition at 48 hours
[11] = ATCC90286, 50% growth inhibition at 48 hours

| Compound | MIC [1, 7] [µg/mL] | MIC [2, 8] [µg/mL] | MIC [3, 7] [µg/mL] | MIC50 (Candida albicans GDH2346; [9]) [µg/mL] | MIC [4, 7] [µg/mL] | MIC50 [5, 10] [µg/mL] | MIC50 [6, 11] [µg/mL] | MIC ([1]; 48 h) [µg/mL] | MIC ([2]; ATCC58877, 48 h) [µg/mL] | MIC ([3]; 48 h) [µg/mL] | MIC50 (Candida albicans GDH2346; GDH2346, 48 h) [µg/mL] | MIC ([4]; 48 h) [µg/mL] | MIC50 ([5]; ATCC26759, 48 h) [µg/mL] | MIC50 ([6]; ATCC90286, 48 h) [µg/mL] |
| --- | --- | --- | --- | --- | --- | --- | --- | --- | --- | --- | --- | --- | --- | --- |
| Cn1c(-c2ccc(C3=CCN(C(=N)N)CC3)c(F)c2)nnc1-c1ccc(C2=CCN(C(=N)N)CC2)cc1F [Example 79, 4-(4-{5-[4-(1-carbamimidoyl-1,2,3,6-tetrahydropyridin-4-yl)-2-fluorophenyl]-4-methyl-4H-1,2,4-triazol-3-yl}-2-fluorophenyl)-1,2,3,6-tetrahydro pyridine-1-carboximidamide trifluoroacetate] | 0.1 | 0.1 | 0.05 | 0.1 | 0.1 | 0.2 | 0.39 |  |  |  |  |  |  |  |
| N=C(N)N1CC=C(c2ccc(-c3nnc(-c4ccc(C5=CCN(C(=N)N)CC5)cc4F)n3CCO)cc2)CC1 [Example 82, 4-(4-{5-[4-(1-carbamimidoyl-1,2,3,6-tetrahydropyridin-4-yl)-2-fluorophenyl]-4-(2-hydroxyethyl)-4H-1,2,4-triazol-3-yl}phenyl)-1,2,3,6-tetrahydropyridine-1-carboximidamide hydrochloride] |  |  |  |  |  |  |  | 0.1 | 0.05 | 0.05 | 0.2 | 0.2 | 0.39 | 1.56 |
| N=C(N)N1CC=C(c2ccc(-c3nnc(-c4ccc(C5=CCN(C(=N)N)CC5)cc4F)n3CC(F)(F)F)c(F)c2)CC1 [Example 84, 4-(4-{5-[4-(1-carbamimidoyl-1,2,3,6-tetrahydropyridin-4-yl)-2-fluorophenyl]-4-(2,2,2-trifluoroethyl)-4H-1,2,4-triazol-3-yl}-3-fluorophenyl)-1,2,3,6-tetrahydropyridine-1-carboximidamide hydrochloride] |  |  |  |  |  |  |  | 0.2 | 0.05 | 0.1 | 0.2 | 0.39 | 0.39 | 0.78 |
| Cn1c(-c2cc(F)c(C3=CCN(C(=N)N)CC3)c(F)c2)nnc1-c1ccc(C2=CCN(C(=N)N)CC2)cc1F [Example 85, 4-(4-{5-[4-(1-carbamimidoyl-1,2,3,6-tetrahydropyridin-4-yl)-2-fluorophenyl]-4-methyl-4H-1,2,4-triazol-3-yl}-2,6-difluorophenyl)-1,2,3,6-tetrahydropyridine-1-carboximidamide trifluoroacetate] |  |  |  |  |  |  |  | 0.024 | < 0.012 | < 0.012 | 0.1 | 0.024 | 0.2 | 0.78 |
| COCCn1c(-c2ccc(C3=CCC(C(=N)N)CC3)cc2F)nnc1-c1ccc(C2=CCC(C(=N)N)CC2)cc1F.O=C(O)C(F)(F)F (stereo not drawn) [Example 86, 4-(4-{5-[4-(4-carbamimidoylcyclohex-1-en-1-yl)-2-fluorophenyl]-4-(2-methoxyethyl)-4H-1,2,4-triazol-3-yl}-3-fluorophenyl)cyclohex-3-ene-1-carboximidamide trifluoroacetate] | 0.78 | 0.2 | 0.78 | 0.78 | 0.78 | 1.56 | 6.25 |  |  |  |  |  |  |  |
| Cn1c(-c2ccc(C3=CCC(C(=N)N)CC3)cc2F)nnc1-c1ccc(C2=CCC(C(=N)N)CC2)cc1F (stereo not drawn) [Example 87, 4-(4-{5-[4-(4-carbamimidoylcyclohex-1-en-1-yl)-2-fluorophenyl]-4-methyl-4H-1,2,4-triazol-3-yl}-3-fluorophenyl)cyclohex-3-ene-1-carboximidamide trifluoroacetate] |  |  |  |  |  |  |  | 0.2 | 0.2 | 0.1 | 0.2 | 0.78 | 0.39 | 3.13 |
